From PMC10616469, “Pharmacokinetics and tissue distribution of four major bioactive components of Cynanchum auriculatum extract: a UPLC–MS/MS study in normal and functional dyspepsia rats” (Frontiers in Pharmacology, 2023)
Where two headings read alike, the source gives them in different places.

Legend:
[1] = Tissue distribution study after oral administration of CA extract in normal and FD rats
Procedure: UPLC–MS/MS analysis was conducted using the ACQUITY UPLC system (Waters Corp., Milford, MA, United States) equipped with a Xevo–TQ mass spectrometer (Waters Corp., Milford, MA, United States) with an electrospray ionization (ESI) interface and triple quadrupole mass analyzer.
The ACQUITY UPLC® BEH C18 column (2.1 mm × 50 mm, 1.7 μm, Waters, United States) was used for separation and was maintained at 40°C. The mobile phase consisted of 0.1% formic acid in water (A) and 0.1% formic acid–acetonitrile (B) for PK study and 0.2% formic acid in water (A) and 0.2% formic acid–acetonitrile (B) for tissue distribution study. The mobile phase was eluted as a gradient, as follows: 0–0.5 min, 10% B; 0.5–3.0 min, 15% B; 3.0–3.2 min, 25% B; 3.2–4.0 min, 30% B; 4.0–4.5 min, 32% B; 4.5–6.0 min, 90% B; and 6.0 min, 10% B. The flow rate was set at 0.35 mL/min and the injection volume was 2 μL for the PK study and 1 μL for the tissue distribution study.
The four active components of CA were quantified using multiple reaction monitoring under negative ion mode. The following m/z transitions were chosen for quantification: baishouwu benzophenone 301.00→283.00, deacylmetaplexigenin 379.15→361.20, qingyangshengenin 499.20→137.00, syringic acid 197.20→181.95, and puerarin (internal standard, IS) 415.10→267.05. The collision energy was 15, 15, 35, 15, and 35 V, respectively ([Sun et al., 2022]). ESI mode was operated under the following conditions: capillary voltage, 1 kV; desolvation gas (N2), 1000 L/h; collision gas (Ar2), 150 L/h; desolvation temperature, 400°C; and source temperature, 120°C.
Additionally, stomach and small intestinal tissues were diluted three times to obtain a tissue homogenate. Then, 300 μL of this tissue homogenate was mixed with 30 μL 1% formic acid-water, 20 μL IS, and 1.2 mL acetonitrile. The mixture was then vortexed for 5 min, sonicated for 10 min, and then stored at −20°C for 30 min. Subsequently, the mixture was centrifuged at 14,000 rpm for 10 min. The supernatant obtained was then transferred to another tube and evaporated to dryness at 37°C under nitrogen. The dried residue was reconstituted with 200 μL of the 50% methanol–water, and the centrifugation process was repeated. The obtained supernatant was then used for further analysis.
SD rats were randomly divided into normal and FD groups (n = 30 each) and orally administered 10 mL/kg of CA extract solution. The rats were sacrificed at 10, 30 min, 1, 2, and 4 h after administration (6 rats per time point). Subsequently, their heart, liver, spleen, lung, kidney, brain, small intestine, and stomach were removed. The tissue samples were then washed in saline solution and wiped with filter paper. Subsequently, all tissues were stored at −80°C until analysis.

[2] = Stability of the four compounds in plasma samples (QC samples); conditions: n = 5
Procedure: In a 1.5 mL EP tube, 100 μL of plasma sample was mixed with 10 µL 1% formic acid–water, 10 μL IS (0.2011 μg/mL), and 400 μL acetonitrile. The mixture was then vortexed for 5 min, followed by sonication for 10 min at 40 kHz and centrifugation at 14,000 rpm for 10 min. The supernatant obtained was transferred to another tube and evaporated to dryness under a nitrogen vacuum at 37°C. The residue obtained was reconstituted with 150 μL of the initial mobile phase, and the centrifugation process was repeated. The supernatant thus obtained was then used for further analysis.
Similarly, QC samples of three concentrations (low, medium, and high) were prepared.
The specificity of the method was evaluated by comparing the retention times of analytes and IS in the blank matrix, blank matrix spiked with the four analytes and IS, and the samples after oral administration of CA extract. Calibration curves were constructed by comparing the ratio of peak areas of the four analytes to that of IS versus the concentration of the four analytes. Calibration curves were fitted via linear weighted (1/X ^ 2 ) least–squares regression. The intra–and inter–day precision and accuracy were estimated by analyzing QC samples at different concentrations on the same day and three consecutive validation days, respectively. The extraction recovery was evaluated by determining the peak area of analytes in QC samples compared with that in extracted matrix samples. The relative standard deviation of the extraction recovery of analytes at each level was retained at ≤20.0%. The following parameters of stability were assessed: short–term stability (24 h at room temperature), processed sample stability (24 h at 4°C), freeze–thaw stability (3 cycles), and auto–sampler stability (6 h at room temperature). QC samples of different concentrations were used for stability analysis.

[3] = PK study: plasma pharmacokinetics after oral administration of CA extract in normal and FD rats (UPLC-MS/MS); type: in vivo; conditions: Sprague-Dawley, rat, oral CA extract (0.10 g/mL solution, 10 mL/kg); for AUC(0-inf) / AUC(0-t) / CL/F / Cmax / half-life: n = 6; for Tmax: n = 6, read-out: Tmax; for Vd/F: n = 6, read-out: Vz/F
Procedure: For PK experiments, an appropriate amount of the CA extract was weighed to prepare a 0.10 g/mL solution using physiological saline. Briefly, 12 SD rats were randomly assigned to normal and FD groups and were orally administered the prepared CA sample (10 mL/kg body weight). For assessment, 0.3 mL of blood was collected into heparinized tubes via the caudal vein before dosing and at 2, 5, 10, 15, 20, 30, and 45 min, and 1, 2, 4, 8, 12, 24, and 48 h after administration. Blood samples were then immediately centrifuged at 4,500 rpm for 15 min, and the obtained plasma samples were stored at −20°C until determination.
The PK parameters were analyzed using the non–compartment analysis using the WinNonLin 8.2 software (Phoenix, United States). All the data were expressed as mean ± standard deviation (SD). The normal and FD groups were compared using independent samples t–test in SPSS 22.0. Results with p values < 0.05 were considered statistically significant.

[4] = high QC (nominal 1666.00 / 3172.53 / 569.17 / 206.21 ng·mL^-1)
[5] = low QC (nominal 52.06 / 49.57 / 8.89 / 1.61 ng·mL^-1)
[6] = medium QC (nominal 208.25 / 396.57 / 71.13 / 25.78 ng·mL^-1)

- detection in the brain ([1]; rat brain): not detected
- time after dosing at which eliminated in all tissues ([1]; rat tissues): 1 h
- tissue with higher distribution ([1]; rats): stomach
- Measured concentration, 4°C for 24 h [2, 4]: 185.91 ± 1.51 ng/mL
- Measured concentration, Room temperature for 24 h [2, 4]: 196.89 ± 6.85 ng/mL
- Measured concentration, Three freeze-thaw cycles [2, 4]: 198.43 ± 6.85 ng/mL
- Measured concentration, 4°C for 24 h [2, 5]: 1.47 ± 0.10 ng/mL
- Measured concentration, Three freeze-thaw cycles [2, 5]: 1.42 ± 0.18 ng/mL
- Measured concentration, 4°C for 24 h [2, 6]: 22.75 ± 1.62 ng/mL
- Measured concentration, Room temperature for 24 h [2, 6]: 23.14 ± 1.80 ng/mL
- Measured concentration, Three freeze-thaw cycles [2, 6]: 23.32 ± 1.20 ng/mL
- AUC(0-inf) ([3]; FD group rats): 1170 ± 357 ng·h/mL
- AUC(0-t) ([3]; FD group rats): 498 ± 109 ng·h/mL
- CL/F ([3]; FD group rats): 1.83 mL/min/kg
- Cmax ([3]; FD group rats): 67.4 ± 3 ng/mL
- half-life ([3]; FD group rats): 37.7 ± 12.6 h
- Tmax ([3]; FD group rats): 0.25 ± 0.04 h
- Vd/F ([3]; FD group rats): 5.49 ± 0.69 L/kg
- AUC(0-inf) ([3]; Normal group rats): 1150 ± 153 ng·h/mL
- AUC(0-t) ([3]; Normal group rats): 523 ± 54.3 ng·h/mL
- CL/F ([3]; Normal group rats): 1.67 mL/min/kg
- Cmax ([3]; Normal group rats): 72.2 ± 6.74 ng/mL
- half-life ([3]; Normal group rats): 34.5 ± 6.73 h
- Tmax ([3]; Normal group rats): 0.24 ± 0.03 h
- Vd/F ([3]; Normal group rats): 5.07 ± 0.74 L/kg
SMILES: COc1cc(C(=O)O)cc(OC)c1O [Syringic acid]
